Measured values from patent publication US20120283174A1, “ANTIBIOFILM GLYCOPEPTIDES” (ORAL HEALTH AUSTRALIA PTY. LTD., priority 2009, published 2012).
Marks after values point to notes of the source that are not given here.

What was measured:
[1] = system: S. mutans biofilms; experiment: Flow cell culture and CSLM analysis of 16 h S. mutans biofilms, single 10 min treatment; assay type: cell-based, Streptococcus mutans Ingbritt
Experimental: (§1) Flowcell culture and CSLM analysis of monospecific biofilm The biofilm culture of S. mutans in flow cells was similar to that described by Wen et al. (2006) with several modifications. A 3-channel flow cell system (Stovall Life Science, Greensboro, N.C., USA) was modified with stopcocks for inoculation, testing and staining of the bacterial biofilms. All parts were assembled and 0.5% sodium hypochlorite was pumped in and left overnight. Sterile water (200 mL) was then used to flush the system prior to the addition of growth medium. The system was inoculated with 1 mL of an exponentially growing S. mutans Ingbritt culture diluted to a cell density of 1×10^7 cells/mL. The system was incubated for 1 h prior to constant flow (0.2 mL/min) of 25% ASM (ASM; 2.5 g/L type II porcine gastric mucin, 2.0 g/L bacteriological peptone, 2.0 g/L tryptone, 1.0 g/L yeast extract, 0.35 g/L NaCl, 0.2 g/L KCl, 0.2 g/L CaCl2 and 1 mg/L haemin, pH 7.0) supplemented with 2.5 mM DTT and 0.5 g/L sucrose.. After 16 h, 1 mL of purified glycosylated x-casein(106-169) (KCG); KCGP(f106-169); KCGPZ(f106-169) (KCGPZ(f106-169); 10 mg/mL KCGP(f106-169) and 20 mM ZnCl2); 20 mM ZnCl2; 0.1% chlorhexidine digluconate or sterile water was injected into each channel of the system and incubated for 10 min, the flow of 25% ASM was then resumed for 10 min prior to staining. For determination of the effects of treatments on early stage biofilms the system was incubated for 6 h after inoculation, treated with 1 mL of test solutions for 10 min and the flow of 25% ASM resumed for another 16 h to observe recovery of the biofilm. BacLight LIVE/DEAD stain (Molecular Probes) was then used to stain the biofilm in situ.
(§2) Confocal laser scanning microscopy (CLSM) of the bacterial biofilms was carried out on a Meta 510 Confocal Microscope with an inverted stage (Zeiss). Horizontal (xy) optodigital sections, each 2 μm thick over the entire thickness of the biofilm (z) were imaged using a 63× objective at 512×512 pixel (0.28 μm per pixel), with each frame at 143.86 μm (x)×143.86 μm (y). To determine reproducibility across the biofilm 5 images at random positions were obtained at wavelengths of 488 nm and 568 nm for each channel and 3 biological replicates were used. All images obtained were analysed using Comstat software (Heydorn et al., 2000).
(§3) Data treatment and statistical analyses. The biometric data were analyzed using a two-factor analysis of variance (ANOVA) model with treatment included as a fixed factor and experiment as a random blocking factor to investigate the effect of KCGP(f106-169), KCG, KCGPZ(f106-169), Zinc and chlorhexidine on established biofilms. If treatment differences were significant, post hoc comparisons of treatment differences were performed using the Tukey posttest. Model fits were checked by residual plots, normality was investigated using normal probability plots and the Kolmogorov-Smirnov test and homogeneity of error variances was tested using Levene's test. When the error variances were heterogeneous a natural logarithm transformation of the data was used to stabilize the treatment group variances. Treatments were then compared using ANOVA on the transformed data. The biometric data obtained from the experiments investigating the effect of KCGPZ(f106-169) on 6 h S. mutans biofilms was analysed using a Paired Samples T-Test. All analyses were conducted using SPSS statistical software (version 17.0, SPSS Inc., Chicago, Ill.).

[2] = 0.12% mouthwash, over a 12 week period; cited from earlier work
[3] = system: S. sanguis cells grown as a biofilm; details: 0.2% w/v, 5 minute exposure, biofilm in a CDFF; cited from earlier work
[4] = system: six species oral biofilm; details: 0.2% w/v, 1 and 5 minutes of exposure; cited from earlier work
[5] = system: S. mutans biofilm; experiment: Early stage (6 h) S. mutans flow cell biofilms, 10 min treatment, 16 h recovery, CSLM; assay type: cell-based, Streptococcus mutans Ingbritt; design: key to Surface to biovolume ratio / Roughness coefficient (dimensionless, range: zero-infinity) / Biovolume / Average thickness: —: No significant amount of biofilms detected after 16 h recovery; details: 6 h biofilm
Experimental: as §1, §2, §3

[6] = 0.1% (Table 1), 16 h biofilm, single 10 min treatment
[7] = 0.1%, 16 h biofilm, single 10 min treatment
[8] = 0.1%, 16 h biofilm, single 10 min treatment, listed as Chlorhexidine digluconate
[9] = 0.1% chlorhexidine digluconate, 10 min treatment

[H]/N=C(\N/C(=N/[H])NCCCCCCNC(=N)NC(=N)Nc1ccc(Cl)cc1)Nc1ccc(Cl)cc1 [Chlorhexidine, chlorhexidine digluconate]
reduction of average thickness [1, 6]: 59%
reduction of total biomass [1, 6]: 53%
Average thickness [1, 7]: 3.02 ± 0.66^a μm
Biovolume [1, 7]: 1.82 ± 0.60^a μm^3/μm^2
Roughness coefficient (dimensionless, range: zero-infinity) [1, 7]: 1.51 ± 0.12^a
Surface to biovolume ratio [1, 7]: 2.36 ± 1.24^ab μm^2/μm^3
Average thickness [1, 8]: Significant reduction
Biovolume [1, 8]: Significant reduction
Surface to biovolume ratio ([1]; 0.1%, 16 h biofilm, single 10 min treatment, listed as chlorhexidine): nonsignificant differences
dead S. mutans cells by propidium iodide staining (BacLight Live/Dead, FIG. 5) ([1]; 16 h biofilm after treatment, qualitative): qualitatively higher number of dead S. mutans cells compared with KCG or KCGPZ(f106-169)
disruption / inhibition of S. mutans biofilms, comparison between treatments in words ([1]; 16 h biofilm, single 10 min treatment, concentrations as in Table 1): not significantly different to those produced by ZnCl2, 2.4 mg/mL purified KCG or 10 mg/mL KCGP(f106-169)
reduction of gingival inflammation [2]: 25%
reduction of plaque accumulation [2]: 28%
reduction in viable S. sanguis cells [3]: ~2 log10
effect on six species oral biofilm [4]: no significant difference
Average thickness [5, 9]: —^b
Biovolume [5, 9]: —^b
Roughness coefficient (dimensionless, range: zero-infinity) [5, 9]: —^b
Surface to biovolume ratio [5, 9]: —^b
effect on early S. mutans biofilms in words ([5]; single 10 min treatment): substantially reducing the biofilms, which had not recovered after 16 h

[Cl-].[Cl-].[Zn+2] [ZnCl2]
Roughness coefficient (dimensionless, range: zero-infinity) ([1]; 20 mM, 16 h biofilm, single 10 min treatment): 1.54 ± 0.07^ab
